Experimental data: US20190375786A1, “STABLE PEPTIDES AND METHODS OF USE THEREOF” (Fred Hutchinson Cancer Research Center, priority 2016, published 2019)
Positions of bridges follow the written chain, without caps; N, C: chain ends. Residues, ends and D or L forms follow the SMILES beside them.

Assays:
[1] = Resistance to reduction by DTT, RP-HPLC; assay type: physicochemical; details: 10 mM DTT in PBS, room temperature, 30 minutes; HPLC peak vs untreated peptide
Procedure: Peptides were first suspended in 500 ul of ddH2O to a stock concentration of 2 mg/ml. Reactions were prepared by adding 12.5 ug of peptide from the stock solution to a 10 mM solution of DTT in PBS and allowed to incubate at room temperature for 30 minutes. Other reactions were prepared with 12.5 μg peptide with or without 500 U/ml pepsin in simulated gastric fluid (SGF; pH 1.05; […] sodium chloride in 0.7% (v/v) hydrochloric acid) and were incubated for 30 minutes at 37.5° C. Some reactions were quenched with a final concentration of 100 mM Tris base and 10 mM dithiothreitol (DTT). Some reactions were performed in all of the above components, including simulated gastric fluid, pepsin, Tris, and DTT (referred to as SPTD). Reversed phase HPLC (RP-HPLC) was run on samples using an Agilent 1260 HPLC equipped with a C-18 Poroshell 120B column. Sample were analyzed by a gradient method with a mobile phase of Solvent A (water with 0.1% TFA) and Solvent B (acetonitrile with 0.1% TFA). Solvent B was ramped up from 5%-45% of the mobile phase over a period of 10 minutes. Peptides were detected at an absorbance of 214 nm and 280 nm.
Peptides were first suspended in 500 μl of ddH2O to a stock concentration of 2 mg/ml. Reactions were prepared by adding 12.5 μg of peptide from the stock solution to a 10 mM solution of DTT in PBS and allowed to incubate at room temperature for 30 minutes. Other reactions were prepared with 12.5 μg peptide and 500 U/ml trypsin in 25 mM Tris/75 mM NaCl buffer (pH 7.0) and incubated for 30 minutes at 37.5° C. These reactions were then quenched with 5 μg of soybean trypsin inhibitor (I) and, in some cases, 10 mM dithiothreitol (DTT). Reversed phase HPLC (RP-HPLC) was run on samples using an Agilent 1260 HPLC equipped with a C-18 Poroshell 120B column. Sample were analyzed by a gradient method with a mobile phase of Solvent A (water with 0.1% TFA) and Solvent B (acetonitrile with 0.1% TFA). Solvent B was ramped up from 5%-45% of the mobile phase over a period of 10 minutes. For testing pepsin digestion resistance, reactions were prepared with 12.5 μg peptide with or without 500 U/ml pepsin in simulated gastric fluid (SGF; pH 1.05; […] sodium chloride in 0.7% (v/v) hydrochloric acid) and were incubated for 30 minutes at 37.5° C. For testing temperature resistance, peptides were incubated at 70° C., 75° C., or 100° C. for one hour in 0.5 mM PBS, pelleted, and then the supernatant was analyzed by HPLC.
This example illustrates peptide stability in biological conditions including in the presence of reducing agents, proteases, oxidative conditions, acidic conditions, and simulated gastric fluids. […] Various peptides were suspended in 500 μl of ddH2O at a stock concentration of 2 mg/ml. This was then diluted in accord with the reaction conditions to prevent adverse buffering effects. Reactions were prepared with 12.5 μg peptide dissolved in solution and, in some samples, additionally suspended in a 10 mM solution of DTT, simulated gastric fluid (pH 1.05; […] sodium chloride in 0.7% (v/v) hydrochloric acid), 500 U pepsin (5000 U/ml pepsin), 50 U trypsin (500 U/ml trypsin) with 1 mg/ml inhibitor in PBS, or a combination of any of these conditions. All protease reactions were incubated for 30 min at room temperature and then quenched. Pepsin reactions were quenched by adding Tris base to a final concentration of 0.075 M. Trypsin reactions were quenched by adding excess soybean trypsin inhibitor. RP-HPLC was then run on samples using an Agilent 1260 HPLC equipped with a C-18 Poroshell 120B column. Sample were analyzed by a gradient method with a mobile phase of Solvent A (water with 0.1% TFA) and Solvent B (acetonitrile with 0.1% TFA). Solvent B was ramped up from 5%-45% of the mobile phase over a period of 10 minutes.
FIG. 18 illustrates high performance liquid chromatograph (HPLC) traces of peptides in non-reducing (NR) conditions (solid trace) or in 10 mM DTT reducing (R) conditions (dashed trace). […]

[2] = biological target: pepsin (Sus scrofa, UniProt P00791); assay: Pepsin digestion resistance in simulated gastric fluid, RP-HPLC; assay type: in vitro ADME, porcine; design: purchased Sigma Aldrich P7012; details: 500 U/ml pepsin in SGF pH 1.05, 30 minutes at 37.5° C.; HPLC peak vs untreated peptide
Summary of the method: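 Digestion resistance read by reversed-phase HPLC (C-18, 0.1% TFA, 5–45% acetonitrile over 10 min; 214/280 nm) after 12.5 μg peptide spent 30 min at 37.5 °C in pH 1.05 simulated gastric fluid, with or without 500 U/ml pepsin. Some samples quenched with Tris base and DTT.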

[3] = biological target: trypsin (Sus scrofa, UniProt P00761); assay: Trypsin digestion resistance of soluble peptide, RP-HPLC; assay type: in vitro ADME, porcine; design: purchased Sigma Aldrich 6567; details: 500 U/ml trypsin, 30 minutes at 37.5° C.; HPLC peak vs untreated peptide
Summary of the method: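 Read-out was RP-HPLC (C-18, water/acetonitrile with 0.1% TFA, 5-45% over 10 min) of peptide left after trypsin treatment. Digest: 12.5 μg peptide, 500 U/ml porcine trypsin, PBS, 37.5° C for 30 min, stopped by soybean trypsin inhibitor; samples then reduced (10 mM DTT) or left non-reduced.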

Chain of pepsin (P00791 60-385): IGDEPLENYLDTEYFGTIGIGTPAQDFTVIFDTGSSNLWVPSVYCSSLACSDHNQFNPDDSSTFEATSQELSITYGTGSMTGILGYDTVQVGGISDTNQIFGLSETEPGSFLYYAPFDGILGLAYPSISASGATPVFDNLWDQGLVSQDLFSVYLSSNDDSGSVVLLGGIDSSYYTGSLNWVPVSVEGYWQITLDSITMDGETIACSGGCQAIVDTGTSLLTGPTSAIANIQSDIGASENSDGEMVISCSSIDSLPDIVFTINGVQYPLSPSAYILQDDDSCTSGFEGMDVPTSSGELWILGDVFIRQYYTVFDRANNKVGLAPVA
Chain of trypsin (P00761 9-231): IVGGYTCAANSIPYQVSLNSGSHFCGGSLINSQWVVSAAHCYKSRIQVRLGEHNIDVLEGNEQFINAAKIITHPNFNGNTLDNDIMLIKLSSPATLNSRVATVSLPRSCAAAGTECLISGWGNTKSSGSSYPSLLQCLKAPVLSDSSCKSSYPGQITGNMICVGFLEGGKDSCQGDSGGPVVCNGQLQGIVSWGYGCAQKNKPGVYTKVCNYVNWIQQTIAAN

Row | Compound | Resistance to DTT Reduction (10 mM) [1] | Resistance to Pepsin (500 U/ml) [2] | Resistance to Trypsin (500 U/ml) [3]
1 | 42 (GSFGLYDNQCATSDACSAICKYWTGSGQGKCQNNQCRCY) [compound 42] | Low (A peptide classified as low indicates that the majority (over 75%) of the HPLC peak of the treated peptide disappeared as compared to the HPLC peak of the untreated peptide) |  | 
2 | CC[C@H](C)[C@@H]1NC(=O)[C@H](CCCNC(=N)N)NC(=O)[C@H]([C@@H](C)CC)NC(=O)[C@@H]2CSSC[C@@H](C(=O)N[C@@H](Cc3ccc(O)cc3)C(=O)N3CCC[C@H]3C(=O)O)NC(=O)[C@H](Cc3ccc(O)cc3)NC(=O)[C@@H]3CSSC[C@H](NC(=O)[C@H](CCC(=O)O)NC(=O)[C@H](CO)NC(=O)[C@H](CO)NC(=O)[C@H](CC(N)=O)NC(=O)[C@H](CC(N)=O)NC(=O)[C@@H](NC(=O)[C@H](CCCNC(=N)N)NC(=O)[C@H](CC(N)=O)NC(=O)[C@H](CO)NC(=O)[C@H](CC(C)C)NC(=O)[C@@H](NC(=O)[C@H](CCCCN)NC(=O)[C@H](CCC(N)=O)NC(=O)[C@H](CO)NC(=O)CN)[C@@H](C)CC)CSSC[C@H](NC(=O)[C@H](CCCCN)NC(=O)[C@H](C)NC(=O)[C@H](C)NC(=O)[C@H](CCCNC(=N)N)NC(=O)[C@H]([C@@H](C)O)NC(=O)CNC(=O)[C@H](Cc4ccccc4)NC1=O)C(=O)N[C@@H]([C@@H](C)CC)C(=O)N[C@@H](CC(N)=O)C(=O)N[C@@H](CCCNC(=N)N)C(=O)N[C@@H](CCCCN)C(=O)N3)C(=O)N[C@@H]([C@@H](C)CC)C(=O)N1CCC[C@H]1C(=O)N[C@@H](Cc1c[nH]cn1)C(=O)N2 [compound 6] (H-GSQKILSNRCNNSSECIPHCIRIFGTRAAKCINRKCYCYP-OH; disulfide 10-31, 16-36, 20-38) |  | High (A peptide classified as high indicates that the majority (at least 75%) of the HPLC peak of the treated peptide is still present as compared to the HPLC peak of the untreated peptide) | High (A peptide classified as high indicates that the majority (at least 75%) of the HPLC peak of the treated peptide is still present as compared to the HPLC peak of the untreated peptide)
3 | CC[C@H](C)[C@@H]1NC(=O)[C@@H]2CSSC[C@H](NC(=O)[C@H](C)NC(=O)CNC(=O)[C@H](CCC(=O)O)NC(=O)[C@@H](NC(=O)[C@H](CCCCN)NC(=O)[C@H](Cc3ccccc3)NC(=O)[C@H](CC(N)=O)NC(=O)[C@H](CO)NC(=O)CN)C(C)C)C(=O)N[C@@H](CO)C(=O)N[C@@H](CCCCN)C(=O)N3CCC[C@H]3C(=O)N[C@H]3CSSC[C@H](NC(=O)[C@H](CCCNC(=N)N)NC(=O)CNC(=O)[C@H](CC(N)=O)NC1=O)C(=O)N[C@@H](Cc1c[nH]cn1)C(=O)N[C@H](C(=O)N[C@@H](Cc1ccc(O)cc1)C(=O)N[C@@H](Cc1ccc(O)cc1)C(=O)O)CSSC[C@H](NC(=O)[C@H](Cc1ccc(O)cc1)NC(=O)[C@H](CCCCN)NC(=O)[C@H](CCCNC(=N)N)NC3=O)C(=O)N[C@@H]([C@@H](C)CC)C(=O)N[C@@H](CC(=O)O)C(=O)N[C@@H](CCCCN)C(=O)NCC(=O)N[C@@H](C)C(=O)N[C@@H](CCCNC(=N)N)C(=O)N[C@@H](CC(N)=O)C(=O)NCC(=O)N[C@@H](CCCCN)C(=O)N2 [compound 5] (H-GSNFKVEGACSKPCRKYCIDKGARNGKCINGRCHCYY-OH; disulfide 10-28, 14-33, 18-35) |  | Moderate (A peptide classified as medium indicates that about half (between 25% and 75%) of the HPLC peak of the treated peptide disappeared as compared to the HPLC peak of the untreated peptide) | Moderate (A peptide classified as medium indicates that about half (between 25% and 75%) of the HPLC peak of the treated peptide disappeared as compared to the HPLC peak of the untreated peptide)
4 | CC[C@H](C)[C@@H]1NC(=O)[C@@H]2CSSC[C@H](NC(=O)[C@H](CCCCN)NC(=O)[C@@H](NC(=O)[C@H](CC(N)=O)NC(=O)[C@@H](NC(=O)[C@@H]3CCCN3C(=O)[C@@H](NC(=O)CNC(=O)[C@H](CO)NC(=O)CN)C(C)C)[C@@H](C)CC)C(C)C)C(=O)N[C@@H](CCCNC(=N)N)C(=O)NCC(=O)N[C@@H](CO)C(=O)N[C@@H](CCCNC(=N)N)C(=O)N[C@@H](CC(=O)O)C(=O)N[C@H]3CSSC[C@H](NC(=O)[C@H](CCCCN)NC(=O)[C@H](CO)NC(=O)[C@H](CC(N)=O)NC1=O)C(=O)N[C@@H](Cc1c[nH]cn1)C(=O)N[C@H](C(=O)N[C@H](C(=O)N1CCC[C@H]1C(=O)O)[C@@H](C)O)CSSC[C@H](NC(=O)[C@@H]1CCCN1C(=O)[C@H](CC(=O)O)NC(=O)[C@H](CC(C)C)NC3=O)C(=O)N[C@@H](CCCCN)C(=O)N[C@@H](CCCCN)C(=O)N[C@@H](C)C(=O)NCC(=O)N[C@@H](CCSC)C(=O)N[C@@H](CCCNC(=N)N)C(=O)N[C@@H](Cc1ccccc1)C(=O)NCC(=O)N[C@@H](CCCCN)C(=O)N2 [compound 27] (H-GSGVPINVKCRGSRDCLDPCKKAGMRFGKCINSKCHCTP-OH; disulfide 10-30, 16-35, 20-37) |  | High (A peptide classified as high indicates that the majority (at least 75%) of the HPLC peak of the treated peptide is still present as compared to the HPLC peak of the untreated peptide) | High (A peptide classified as high indicates that the majority (at least 75%) of the HPLC peak of the treated peptide is still present as compared to the HPLC peak of the untreated peptide)
5 | CC[C@H](C)[C@@H]1NC(=O)[C@@H]2CSSC[C@@H]3NC(=O)[C@H](CCC(N)=O)NC(=O)[C@H](CO)NC(=O)[C@H]([C@@H](C)O)NC(=O)[C@H](CC(N)=O)NC(=O)[C@H](CO)NC(=O)[C@@H](NC(=O)[C@H](CCCCN)NC(=O)[C@H](CCCCN)NC(=O)[C@H](CC(N)=O)NC(=O)[C@@H](NC(=O)[C@H](CO)NC(=O)[C@@H](NC(=O)[C@H](CCC(N)=O)NC(=O)[C@H](CO)NC(=O)CN)C(C)C)[C@@H](C)O)CSSC[C@H](NC(=O)[C@H](CCCCN)NC(=O)CNC(=O)[C@H](C)NC(=O)[C@H](C)NC(=O)[C@H](C(C)C)NC(=O)CNC(=O)[C@H](C(C)C)NC(=O)[C@H](C(C)C)NC(=O)[C@H](CCCCN)NC(=O)[C@H](CCC(=O)O)NC(=O)[C@H](CSSC[C@@H](C(=O)N[C@@H](Cc4ccc(O)cc4)C(=O)N4CCC[C@H]4C(=O)O)NC1=O)NC(=O)[C@H]([C@@H](C)O)NC(=O)[C@H](CCCCN)NC(=O)[C@H](Cc1ccc(O)cc1)NC3=O)C(=O)N[C@@H](CCSC)C(=O)N[C@@H](CC(N)=O)C(=O)NCC(=O)N[C@@H](CCCCN)C(=O)N2 [compound 18] (H-GSQVSTNKKCSNTSQCYKTCEKVVGVAAGKCMNGKCICYP-OH; disulfide 10-31, 16-36, 20-38) |  | High (A peptide classified as high indicates that the majority (at least 75%) of the HPLC peak of the treated peptide is still present as compared to the HPLC peak of the untreated peptide) | Low (A peptide classified as low indicates that the majority (over 75%) of the HPLC peak of the treated peptide disappeared as compared to the HPLC peak of the untreated peptide)
